From ChEMBL document CHEMBL1201862, “PubChem BioAssay data set” (2004)
Active and inactive are the calls of the source.

Key:
[1] = test system: BJ; assay: cytotoxicity toward BJ-TERT fibroblasts, dose response, cell-based, RAS-independent, luminescence (AID 1933); format: functional; details: Homo sapiens
[2] = test system: BJ; assay: cells; format: functional, cell-based; details: Homo sapiens
[3] = test system: BJ; assay: cytotoxicity toward BJ-TERT-LT-ST fibroblasts, dose response, cell-based, RAS-independent, luminescence (AID 1935); format: functional; details: Homo sapiens;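 further: BJ fibroblasts immortalized with TERT plus LT and ST oncogenes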
[4] = cytotoxicity toward DRD oncogenic fibroblasts, dose response, cell-based, non-viral oncogenic, luminescence (AID 1934); format: functional; details: Homo sapiens
[5] = molecular target: T1, Corticotropin-releasing factor receptor 2/Corticotropin-releasing factor-binding protein (Homo sapiens, UniProt P24387+Q13324); assay: Dose Response confirmation of uHTS hits for small molecule antagonists of the CRF-binding protein and CRF-R2 receptor complex.; format: functional; details: read-out: IC50_Mean
T1 sequence (Q13324 whole entry): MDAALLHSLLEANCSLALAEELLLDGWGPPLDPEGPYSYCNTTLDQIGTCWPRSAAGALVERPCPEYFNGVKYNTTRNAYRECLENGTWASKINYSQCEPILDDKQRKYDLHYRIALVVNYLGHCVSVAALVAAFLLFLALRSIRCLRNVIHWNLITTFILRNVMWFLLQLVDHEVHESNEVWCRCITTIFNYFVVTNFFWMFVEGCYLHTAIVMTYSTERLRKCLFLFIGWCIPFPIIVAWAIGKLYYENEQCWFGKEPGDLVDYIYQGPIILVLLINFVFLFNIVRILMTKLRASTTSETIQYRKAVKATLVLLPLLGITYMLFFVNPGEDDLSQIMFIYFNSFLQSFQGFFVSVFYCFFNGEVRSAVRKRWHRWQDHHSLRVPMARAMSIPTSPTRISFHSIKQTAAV
T1 sequence (P24387 whole entry): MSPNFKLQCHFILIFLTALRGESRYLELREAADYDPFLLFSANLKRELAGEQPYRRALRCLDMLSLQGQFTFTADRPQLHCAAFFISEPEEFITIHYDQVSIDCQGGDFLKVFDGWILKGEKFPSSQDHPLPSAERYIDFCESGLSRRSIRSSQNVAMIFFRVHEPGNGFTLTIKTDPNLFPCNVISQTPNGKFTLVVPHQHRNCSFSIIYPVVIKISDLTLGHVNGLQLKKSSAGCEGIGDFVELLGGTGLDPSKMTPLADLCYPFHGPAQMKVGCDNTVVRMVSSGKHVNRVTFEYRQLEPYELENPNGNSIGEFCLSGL

[6] = molecular target: T1, Corticotropin-releasing factor receptor 2/Corticotropin-releasing factor-binding protein; assay: activators of CRF receptor 2 with binding protein – uHTS hits, confirmation (AID 602473); format: functional; details: read-out: EC50_Mean
[7] = CRF-BP/CRF-R2 complex antagonists, dose response, cell-based, uHTS hits, 384-well (AID 651639); format: functional, Homo sapiens; details: read-out: IC50_Mean
[8] = inhibitors of intracellular T. cruzi replication, confirmation, NIH3T3 host cells, beta-gal luminescence (AID 2044); format: functional, cell-based;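 further: intracellular parasites grown in NIH/3T3 mouse fibroblasts as host cells; luminescent beta-galactosidase reporter signal from transgenic T. cruzi replicating inside host cells; inhibitors lower the luminescence signal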
[9] = cytotoxicity toward NIH3T3 fibroblasts, dose response, counter-screen, cell-based, ATP luminescence, mouse fibroblasts (AID 2010); format: functional;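 further: cells exposed to compound for about 90 hours before reading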
[10] = inhibitors of HIV Env-driven cell fusion, dose response, cherry-pick (AID 652057); format: functional, cell-based
[11] = ZM109 Env clade C HIV-1 fusion inhibitors, dose response, HeLa effector, CEM target cells, luciferase, cherry-pick (AID 652058); format: functional, cell-based
[12] = off-target signal loss in HeLa-CEM21 co-culture – HeLa F-luc CTL cells, cherry-picked, counter-screen for HIV-1 Env fusion inhibitor project, dose response (AID 652040); format: functional, cell-based;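 further: potency for signal decrease marking cytotoxic or nonspecific inhibition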
[13] = inhibitors of clade B AD8 Env fusion, dose response, cell-based, cherry-pick (AID 652062); format: functional;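 further: luciferase signal from cell-cell fusion driven by HIV-1 clade B AD8 Env; potency is for inhibitors of fusion seen as a drop in luminescence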
[14] = NIH-3T3 fibroblast cytotoxicity, dose response, cytotoxicity control, cell-based, fluorescence, Alamar Blue, secondary assay (AID 2327); format: functional;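 further: NIH-3T3 mouse fibroblasts cultured with fluconazole at 8 µg/mL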
[15] = C. albicans growth with fluconazole, confirmation, fluorescence, retest (AID 2467); format: functional, cell-based
[16] = molecular target: T2, Calpain-2 catalytic subunit (Sus scrofa, UniProt P43367); assay: pig calpain II inhibitor potency, dose response, biochemical, fluorogenic peptide substrate (AID 1420); format: functional
T2 sequence (P43367 whole entry): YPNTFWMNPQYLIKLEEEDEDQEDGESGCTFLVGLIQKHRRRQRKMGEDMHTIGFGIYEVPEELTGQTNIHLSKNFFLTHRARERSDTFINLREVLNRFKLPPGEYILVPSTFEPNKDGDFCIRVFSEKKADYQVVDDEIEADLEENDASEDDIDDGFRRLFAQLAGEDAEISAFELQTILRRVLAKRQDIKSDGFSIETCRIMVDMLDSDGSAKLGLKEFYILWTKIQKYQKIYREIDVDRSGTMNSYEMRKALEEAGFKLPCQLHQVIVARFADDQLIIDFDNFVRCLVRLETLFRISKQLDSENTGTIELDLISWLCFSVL

SMILES	IC50 [5]	EC50 [6]	IC50 [7]	AC50 [10]	AC50 [11]	AC50 [12]	AC50 [13]	further results
COc1ccc(C(=O)/C(C#N)=N/Nc2ccccc2[N+](=O)[O-])cc1	4.66 µM (active)	> 53 µM (inactive)	11 µM (active)	–	–	–	–	EC50 [1]: 10.7 µM (active); EC50 [2]: 19.4 µM (inconclusive); EC50 [3]: 21.5 µM (inconclusive); EC50 [4]: 2.84 µM (active)
CCN(C1CCCCC1)S(=O)(=O)c1ccc(S(=O)(=O)N(CC(=O)Nc2ccccc2)C2CC2)cc1	–	–	–	4.9 µM (active)	6.25 µM (active)	27.9 µM (active)	7.31 µM (active)	EC50 [8]: 1.93 µM (active); EC50 [9]: > 60 µM (not active)
O=C(NC1CCCCC1)C(c1ccc(Cl)cc1)N(C(=O)c1cnccn1)c1ccc2c(c1)OCO2 (centres undefined)	–	–	–	3.15 µM (active)	2.47 µM (active)	7.12 µM (active)	1.95 µM (active)	EC50 [14]: > 150 µM (inactive); EC50 [15]: > 38 µM (not active)
CCOC(=O)Nc1ccc(Oc2ccccc2)cc1	15.2 µM (active)	> 53 µM (inactive)	> 20 µM (inactive)	–	–	–	–	–
CC(=O)c1ccc(N2CCN(C(=O)c3cccc(Oc4ccccc4)c3)CC2)cc1	2.16 µM (active)	> 53 µM (inactive)	6.67 µM (active)	–	–	–	–	IC50 [16]: 12.3 µM (not active)
CCCCN(c1ccc(C(=O)OC)cc1)S(=O)(=O)c1ccccc1	< 0.368 µM (active)	> 53 µM (inactive)	> 20 µM (inactive)	–	–	–	–	–
